Results on 37 compounds are retold here after EPA's ToxValDB 9.5.

Bounds are passed on as bounds.

The data set relates to Rattus norvegicus. Particulars: oral.
The mark [1] stands for this setting: subchronic, gavage, M, Sprague-Dawley, Relative Organ Weight: Liver increase.
Where [2] appears, read: subchronic, gavage, M, Sprague-Dawley, Deaths + Clinical Observation: Salivation Abnormal resp. noise Irregular respiration Loose stool DiarrheaSoiled fur, nasal/urogenital region….

As for `C=CCOC(=O)CC(C)C` [Allyl isovalerate], for the setting “subchronic, duration: 13 weeks, gavage, M/F, Fischer 344, Deaths + Body Weight Changes: decrease + Histopathology: Liver-Basophilic cytoplasmic change Liver-Multifocal coagulative necrosis Liver-…”, the NOEL is 31 mg/kg-day.
As for `C=CCOC(=O)C(=C)C` [Allyl methacrylate], the NOAEL (in general, the highest tested level that showed no adverse finding) (subchronic, gavage, M, Sprague-Dawley, Clinical Observation: Hypersalivation + Body Weight Changes: Weight gain decrease + Absolute Organ Weight: Adrenal decrease, Thymus increase…) amounted to 15 mg/kg-day.
As to `O=C1CCCCCCCCCCCN1` [Azacyclotridecan-2-one], the NOAEL (subchronic, duration: 90 days, gavage, M/F, Sprague-Dawley, Deaths: None (There were dead animals caused by intubation error) + Blood Chemistry: K increase, TP increase, Alb increase + Histopathology…) came to 25 mg/kg-day.
Turning to `O=C(Cl)c1ccccc1Cl` [Benzoyl chloride, 2-chloro-], the NOEL (subchronic, duration: 42 days, gavage, M, CD(SD), Clinical Observation: Salivation Soft/mucous stool Soiled perianal/perigenital fur + Body Weight Changes: Weight gain decrease + Food …) was found to be 40 mg/kg-day.
On to `c1ccc(COc2ccc3ccccc3c2)cc1` [Benzyl 2-naphthyl ether], for which the NOEL (subchronic, gavage, M, Sprague-Dawley, Blood Chemistry: T-Bil increase + Relative Organ Weight: Liver increase + Histopathology: Kidney-Globular accumulation of eosinophilic …) is less than 100 mg/kg-day.
For `OCc1ccccc1` [Benzyl alcohol], for the setting “subchronic, duration: 13 weeks, gavage, M/F, Fischer 344, Deaths + Clinical Observation: Died Staggering Labored breathing Blood around nose and mouth + Body Weight Changes: decrease + …”, the NOEL was found to be 200 mg/kg-day.
Take `CCCCC(CC)COC(=O)C1CC=CCC1C(=O)OCC(CC)CCCC` (stereo not given) [Bis(2-ethylhexyl) 4-cyclohexene-1,2-dicarboxylate]: the NOEL (subchronic, duration: 42 days, gavage, M, CD(SD), Hematology: WBC decrease, LYMPH decrease, NEUT decrease, Large unstained cell decrease + Absolute Organ Weight: Kidney increase + Relative …) was 100 mg/kg-day.
For the compound `CC1CC(CC2CCC(N)C(C)C2)CCC1N` (stereo not given) [Bis(4-amino-3-methylcyclohexyl)methane], under “subchronic, duration: 90 days, gavage, M/F, Wistar, Deaths: None (There were dead animals due to the intubation error) + Clinical Observation: Deteriorated general state Discolored body region…”, the NOAEL was determined as 2.5 mg/kg-day.
As to `[Bi]` [Bismuth], the NOEL (short-term, duration: 28 days, gavage, Crj:CD) is 1000 mg/kg-day.
On to `COc1cc(-c2ccc(N)c(OC)c2)ccc1N.Cl.Cl` [C.I. Disperse Black 6 dihydrochloride], for which the NOEL (subchronic, duration: 13 weeks, drinking water, M/F, Fischer 344, Body Weight Changes: decrease + Water Consumption: decrease + Hematology: WBC decrease, Lympho decrease, Hct decrease, RBC decrease + Blood …) is less than 170 mg/kg-day.
With `Nc1ccc(N)c2c1C(=O)c1c(N)ccc(N)c1C2=O` [C.I. Disperse Blue 1], the NOEL (subchronic, duration: 13 weeks, diet, M/F, Fischer 344, Deaths + Body Weight Changes: decrease + Histopathology: Kidneys-Calculi Urinary bladder a"Inflammation Urinary bladder a"Transitional …) is 115 mg/kg-day.
For the compound `[Cl-].[Cs+]` [Caesium chloride], for the setting “subchronic, duration: 90 days, gavage, M/F, Sprague-Dawley, Deaths + Clinical Observation: Irritability Convulsion, preening Locomotor activity increase + Body Weight Changes: decrease + Food …”, the NOEL was less than 10 mg/kg-day.
With `COc1ccc2c3c1O[C@H]1[C@@H](O)C=C[C@H]4[C@@H](C2)N(C)CC[C@@]341` [Codeine], the NOEL (subchronic, duration: 13 weeks, diet, F, Fischer 344, Deaths + Clinical Observation: Ruffled fur AlopeciaAbnormal posture + Body Weight Changes: decrease + Hematology: RBC decrease, Plt decrease…) was less than 25 mg/kg-day and the NOEL (subchronic, duration: 13 weeks, diet, M/F, Fischer 344, Deaths + Clinical Observation: Ruffled fur AlopeciaAbnormal posture + Body Weight Changes: decrease + Hematology: RBC decrease, Plt decrease…) was less than 37.4 mg/kg-day.
Consider `O=c1ccc2ccccc2o1` [Coumarin], for which, for the setting “subchronic, duration: 13 weeks, gavage, M/F, Fischer 344, Deaths + Body Weight Changes: decrease + Hematology: RBC increase + Blood Chemistry: Ch E decrease, Cl decrease, TP increase, Alb increase, …”, the NOEL was less than 19 mg/kg-day.
Turning to `CC(C)(O)C1CCCCC1` [Cyclohexanemethanol, .alpha.,.alpha.-dimethyl-], the NOEL (short-term, duration: 28 days, gavage, M/F, Clinical Observation: Salivation + Blood Chemistry: GLUC decrease, TP increase, CRN decrease, BIL increase, T-CHO increase + Absolute Organ …) is less than 8 mg/kg-day.
As for `O=C1c2ccccc2C(=O)C1c1ccc2ccccc2n1` [D & C Yellow 11], the NOEL is less than 37 mg/kg-day (subchronic, diet, F, Fischer 344, Body Weight Changes: decrease + Absolute Organ Weight: Liver increase, Lung increase + Relative Organ Weight: Liver increase, Lung increase…) and less than 48 mg/kg-day (subchronic, diet, M/F, Fischer 344, Body Weight Changes: decrease + Absolute Organ Weight: Liver increase, Lung increase + Relative Organ Weight: Liver increase, Lung increase…).
Compound `CC(Cl)(Cl)C(=O)[O-].[Na+]` [Dalapon-sodium] gave an NOEL (subchronic, gavage, M, Sprague-Dawley, Blood Chemistry: TP decrease, BUN increase) of 300 mg/kg-day.
For the compound `c1ccc2c(c1)sc1ccccc12` [Dibenzothiophene], under “short-term, duration: 28 days, gavage, M/F, Sprague-Dawley, Clinical Observation: Salivation Soiled perigenital fur + Functional Observational Battery: Locomotor activity decrease + Body Weight …”, the NOEL was 3 mg/kg-day.
Turning to `COc1cc(COC(=O)CCCCCCC(C)C)ccc1O` [Dihydrocapsiate], the NOEL (subchronic, gavage, M/F, Crj:CD, Blood Chemistry: ALT increase, Ca increase, Alb increase, TP increase + Absolute Organ Weight: Liver increase + Relative Organ Weight: Liver…) came out at 300 mg/kg-day.
As for `[CH3][Sn]([CH3])([Cl])[Cl]` [Dimethyltin dichloride], under “subchronic, duration: 90 days, drinking water, M/F, Sprague-Dawley, Deaths + Clinical Observation: Died or sacrificed with poor condition (All remaining animals were sacrificed by week 6) Dehydration …”, the NOAEL was less than 3.8 mg/kg-day.
With `CCCCCCC[CH2][Sn]([CH2]CCCCCCC)([S]CC(=O)OCC(CC)CCCC)[S]CC(=O)OCC(CC)CCCC` (stereo not given) [Dioctyltinbis(2-ethylhexyl mercaptoacetate)], the NOAEL (subchronic, duration: 90 days, diet, M/F, Wistar, Deaths + Body Weight Changes: Mean body weight decrease + Food Consumption: decrease + Urinalysis: SG decrease, GOT increase + Hematology: …) was 0.96 mg/kg-day.
For `COCC(C)OCC(C)O` (stereo not given) [Dipropylene glycol monomethyl ether], the NOAEL (short-term, duration: 28 days, gavage, M/F, Sprague-Dawley, Clinical Observation: Tentative salivation + Relative Organ Weight: Liver increase + Histopathology: Liver-Centrilobular hypertrophy) came out at 200 mg/kg-day.
For `C=CC(=O)OCC` [Ethyl acrylate], the NOAEL (subchronic, duration: 90 days, gavage, M, Fischer 344, Necropsy: Small intestine: Reddening, duodenal mucosa Stomach: Prominent blood vessel, cardiac region) turned out to be 55 mg/kg-day.
Turning to `CN1CCN(c2c(F)cc3c(=O)c(C(=O)O)cn(CCF)c3c2F)CC1` [Fleroxacin], under “chronic, duration: 91 days, gavage, M/F, Wistar, Deaths + Clinical Observation: Piloerection + Body Weight Changes: Body weight decrease, Body weight gain decrease + Food Consumption: …”, the NOEL came to 45 mg/kg-day.
In the case of `COc1ccc(C[C@@H](C)NC[C@H](O)c2ccc(O)c(NC=O)c2)cc1.COc1ccc(C[C@@H](C)NC[C@H](O)c2ccc(O)c(NC=O)c2)cc1.O=C(O)/C=C/C(=O)O` [Formoterol hemifumarate], the NOEL (subchronic, duration: 35 days, gavage, F, Sprague-Dawley, Deaths + Clinical Observation: Tachycardia Tachypnea Salivation + Body Weight Changes: Body weight gain decrease + Blood Chemistry: GLUC …) amounted to 0.3 mg/kg-day and the NOEL (subchronic, duration: 35 days, gavage, M, Sprague-Dawley, Deaths + Clinical Observation: Tachycardia Tachypnea Salivation + Body Weight Changes: Body weight gain decrease + Blood Chemistry: GLUC …) is 0.03 mg/kg-day.
Take `O=[N+]([O-])c1ccc(NCCO)c(OCCO)c1` [HC Yellow 4]: the NOEL (subchronic, duration: 13 weeks, diet, M/F, Fischer 344, Body Weight Changes: decrease + Relative Organ Weight: Right kidney increase, Liver increase, Lungs increase, Thymus increase, Testis …) is less than 240 mg/kg-day.
`CC(C)(C)NN.Cl` [Hydrazine, (1,1-dimethylethyl)-, monohydrochloride]: where the note is “subchronic, gavage, M, Sprague-Dawley, Hematology: RBC decrease, Hgb decrease, Hct decrease, MCHC decrease, MCV increase, MCH increase, R RET increase, R + Absolute Organ Weight…”, the NOEL stood at 4 mg/kg-day.
Under setting [1], `C=CC(=O)OCCCCCCCCCCCC` [Lauryl acrylate] showed an NOAEL of 1000 mg/kg-day and an NOEL of 300 mg/kg-day.
Turning to `CCn1cc(C(=O)O)c(=O)c2cc(F)c(N3CCNC(C)C3)c(F)c21.Cl` (stereo not given) [Lomefloxacin hydrochloride], the NOEL (chronic, duration: 91 days, gavage, M/F, Sprague-Dawley, Deaths + Clinical Observation: Prone position(dead animals) Hypothermia(dead animals) Lid closure(dead animals) Clonic convulsion(dead …) stood at 30 mg/kg-day.
Regarding `N#CSCSC#N` [Methylene bis(thiocyanate)], the NOEL runs as follows: (subchronic, gavage, F, Fischer 344, Deaths + Clinical Observation: Abnormal respiratory sounds Reddish tear Hunched posture Dyspnea + Hematology: Hct decrease, Hgb decrease, …) 2 mg/kg-day; (subchronic, gavage, M, Fischer 344, Deaths + Clinical Observation: Abnormal respiratory sounds Reddish tear Hunched posture Dyspnea + Hematology: Hct decrease, Hgb decrease, …) 1 mg/kg-day.
In the case of `COC(=O)C(c1ccccc1)C1CCCCN1.Cl` (stereo not given) [Methylphenidate hydrochloride], the NOEL (subchronic, duration: 13 weeks, diet, F, Fischer 344, Body Weight Changes: decrease + Food Consumption: decrease + Absolute Organ Weight: Brain increase, Liver increase + Relative Organ Weight: …) worked out at 18 mg/kg-day and the NOEL (subchronic, duration: 13 weeks, diet, M/F, Fischer 344, Body Weight Changes: decrease + Food Consumption: decrease + Absolute Organ Weight: Brain increase, Liver increase + Relative Organ Weight: …) was determined as 24 mg/kg-day.
Regarding `O=c1c(O)c(-c2ccc(O)cc2O)oc2cc(O)cc(O)c12` [Morin], the NOEL is 356 mg/kg-day (subchronic, diet, F, Fischer 344, Body Weight Changes: decrease + Hematology: WBC increase + Blood Chemistry: BUN increase , TP decrease, TG decrease , Alb increase , Cho …) and 0.625% (subchronic, diet, M/F, Fischer 344, Body Weight Changes: decrease + Hematology: WBC increase + Blood Chemistry: BUN increase , TP decrease, TG decrease , Alb increase , Cho …).
Take `O=C1C=CC(=O)N1c1cccc(N2C(=O)C=CC2=O)c1` [N,N'-1,3-Phenylenedimaleimide]: under setting [2], the NOAEL turned out to be 15 mg/kg-day and the NOEL is less than 15 mg/kg-day.
Turning to `CO[Si](CCCNCCN)(OC)OC` [N-[3-(Trimethoxysilyl)propyl]ethane-1,2-diamine], the NOAEL (short-term, duration: 28 days, gavage, M, Sprague-Dawley, Clinical Observation: Perioral soiling Increased nasal sounds Labored respiration Soft vocalization) was found to be 500 mg/kg-day.
For the compound `O=c1[nH]c2ccccc2n1CCCN1CCN(C(c2ccccc2)c2ccccc2)CC1` [Oxatomide], the NOEL (subchronic, duration: 30 days, gavage, M/F, Wistar, Deaths + Clinical Observation: Tremor HypersensitivityPiloerection + Body Weight Changes: Body weight gain decrease + Food Consumption: …) came out at 40 mg/kg-day.
With `Cl.O=C(O)/C=C/c1ccc(Cn2ccnc2)cc1` [Ozagrel hydrochloride], the NOEL (short-term, duration: 28 days, gavage, M/F, Sprague-Dawley, Deaths + Clinical Observation: Locomotor activity decrease, Respiration rate increase + Body Weight Changes: decrease + Food Consumption: …) stood at 625 mg/kg-day.
`CC(C)(Sc1cc(C(C)(C)C)c(O)c(C(C)(C)C)c1)Sc1cc(C(C)(C)C)c(O)c(C(C)(C)C)c1` [Probucol]: the NOAEL (chronic, duration: 91 days, gavage, Sprague-Dawley) was more than 2250 mg/kg-day.
